PubChem BioAssay (NCI)
Several values for one entry are separate records, joined by “and”; a condition that tells them apart may be missing. Identical values can stand only once.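 96-well plates; 48 h exposure; 5 concentrations. Endpoints by linear interpolation between flanking doses. Not reached: highest tested concentration assigned. GI50 marks 50% less growth. TGI: total growth inhibition.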

Experiments:
Experiment in all cases: NCI-60 cell line screen, 48 h
SF-539 CNS = system: SF-539 CNS
OVCAR-5 ovarian = system: OVCAR-5 ovarian
SK-OV-3 ovarian = system: SK-OV-3 ovarian
SNB-19 CNS = system: SNB-19 CNS
SK-MEL-5 melanoma = system: SK-MEL-5 melanoma
SW-620 colon = system: SW-620 colon
CCRF-CEM leukemia = system: CCRF-CEM leukemia
MOLT-4 leukemia = system: MOLT-4 leukemia
TK-10 renal = system: TK-10 renal
EKVX NSCLC = system: EKVX NSCLC

Compound | TGI (SF-539 CNS) [µM] | TGI (OVCAR-5 ovarian) | TGI (SK-OV-3 ovarian) [µM] | TGI (SNB-19 CNS) [µM] | TGI (SK-MEL-5 melanoma) | TGI (SW-620 colon) [µM] | TGI (CCRF-CEM leukemia) [µM] | TGI (MOLT-4 leukemia) [µM] | TGI (TK-10 renal) [µM] | TGI (EKVX NSCLC) | GI50 (SF-539 CNS) [µM] | GI50 (OVCAR-5 ovarian) [µM] | GI50 (SK-OV-3 ovarian) [µM] | GI50 (SNB-19 CNS) [µM] | GI50 (SK-MEL-5 melanoma) [µM] | GI50 (SW-620 colon) [µM] | GI50 (TK-10 renal) [µM] | GI50 (EKVX NSCLC) [µM] | GI50 (CCRF-CEM leukemia) [µM] | GI50 (MOLT-4 leukemia) [µM]
CC(=O)OC1=C2CC[C@@H]3C(CC[C@@]4(C)C3CC[C@@H]4OC(C)=O)[C@@]2(C)CC(C#N)C1=O (some centres undefined) | > 100 | > 100 µM | 48.1 | > 100 | 49.4 µM | > 100 | 53.1 | 51.3 | > 100 | > 100 µM | – | – | – | – | – | – | – | – | – | –
C=CCOc1ccc(N)c([N+](=O)[O-])c1 | > 100 | > 100 µM | > 100 | > 100 | > 100 µM | > 100 | > 100 | > 100 | > 100 | > 100 µM | – | – | – | – | – | – | – | – | – | –
COc1ccccc1NC(=O)CC(=O)n1nc(C)c(N=Nc2ccccc2Cl)c1C | > 100 | > 100 µM | 98.6 | > 100 | > 100 µM | > 100 | > 100 | > 100 | > 100 | > 100 µM | – | – | – | – | – | – | – | – | – | –
COc1c(C)c(OC)c(C(=O)CC(C)C)c(OC)c1C | > 100 | > 100 µM | > 100 | > 100 | > 100 µM | > 100 | > 100 | > 100 | > 100 | > 100 µM | – | – | – | – | – | – | – | – | – | –
CN[C@@H](Cc1cccc2ccccc12)C(=O)N[C@@H](CC(C)C)B(O)O | 0.0167 | 0.0518 µM and 0.0204 µM | > 100 | – | 0.103 µM and 0.0128 µM | 0.026 | 0.0354 | 0.0466 | 0.0821 | 0.209 µM and 0.0476 µM | 0.00473 | 0.0187 | 0.0944 | 0.0356 | 0.0249 | 0.012 | 0.0256 | 0.0277 | – | –
CC[C@H]1CCC/C=C/[C@@H]2C[C@H](O)C[C@H]2[C@H](O)/C=C/C(=O)O1 | > 100 | > 100 µM | – | > 100 | 0.0328 µM | 0.517 | > 100 | > 100 | 0.568 | > 100 µM | 0.06 | 0.0464 | 0.0476 | 0.0607 | 0.0166 | 0.0313 | 0.0355 | 0.0522 | 0.0455 | 0.0354
CCOC(=O)Nc1ccc2c(c1)C(=O)N(CC)c1ccccc1O2 | 0.643 | > 100 µM | > 100 | > 100 | 2.33 µM | > 100 | > 100 | > 100 | > 100 | > 100 µM | 0.0942 | – | 0.157 | 0.268 | 0.106 | 0.0632 | > 100 | 0.264 | 0.0889 | 0.125
CC(C)=Cc1cccc2[nH]c(O)c(N=Nc3ccc(S(N)(=O)=O)cc3)c12 | > 20.1 | > 25 µM | > 25 | > 25 | > 25 µM | > 25 | > 25 | > 25 | > 25 | > 25 µM | 2.72 | > 25 | 14.5 | > 14.6 | – | 1.14 | 2.29 | > 25 | 1.23 | 1.74
COc1cc2c(/C=C3/C(=O)Nc4ccc(O)cc43)c(Cl)n(Cc3cc(OC)c(OC)c(OC)c3)c2cc1C | > 31.1 | > 100 µM | > 75 | > 100 | 2.71 µM | > 100 | 10.9 | > 21.9 | > 24.6 | > 38.5 µM | 2.24 | 15.6 | 4.06 | 3.32 | 1.02 | 3.28 | 3.25 | 2.69 | 1.38 | 2.34
CC[C@]12C=CCN3CC[C@@]4(c5ccc(OC)cc5N(C)[C@H]4[C@@](O)(C(=O)OC)[C@@H]1OC(=O)CCC(=O)O[C@H]1CC[C@H]4[C@@H]5CC[C@H]6CC(=O)CC[C@]6(C)[C@H]5CC[C@]14C)[C@@H]32 | > 100 | > 100 µM | 9.55 | > 100 | 4.03 µM | 13.2 | > 100 | > 100 | 17.8 | > 100 µM | 3.89 | 2.69 | 2.89 | 4.85 | 1.65 | 3.05 | 2.55 | 1.78 | 3.04 | 2.59
COc1ccc2nc3c(cc2c1)C(=O)CC(c1ccccc1)C3 (centres undefined) | 5.15 | > 100 µM | > 100 | > 100 | 44.5 µM | > 100 | > 100 | > 100 | > 100 | > 100 µM | 1.22 | 6.83 | 2.09 | 2.94 | 0.979 | 0.727 | > 100 | 5.81 | 0.291 | 0.364
O=S1(=O)c2cc(S(=O)(=O)n3ccnc3)ccc2NC2=NCCCN21 | 40.1 | > 100 µM | 46.9 | > 100 | 49.6 µM | 73.8 | 73.3 | > 100 | > 100 | > 100 µM | – | – | – | – | – | – | – | – | – | –
CCc1cccc(C(C)CC)c1NC(=O)C(=O)Cc1nc2ccccc2o1 (centres undefined) | > 50 | > 50 µM | > 50 | > 50 | > 50 µM | > 50 | > 50 | > 42 | > 50 | > 50 µM | – | – | – | – | – | – | – | – | – | –
CC1(C)N=c2cc3c(cc2N1c1ccc(Cl)cc1)=Nc1ccccc1N3c1ccc(Cl)cc1 | > 100 | > 100 µM | > 100 | > 100 | 20.3 µM | 21.9 | 13.9 | 4.04 | 67 | > 100 µM | 8.97 | 8.13 | > 100 | 58.2 | 3.64 | 4.68 | 3.84 | 5.31 | 2.6 | 1.53
CN(/N=C/c1ccccc1O)c1ccc2ccccc2n1 | 37.1 | > 100 µM | 29.8 | 30.3 | > 100 µM | > 100 | > 100 | 62.6 | 44 | 54.9 µM | – | – | – | – | – | – | – | – | – | –
